One series relates to AGS p-ERK. The series is described as follows: Cell assay for p-ERK (HTRF, Advance ERK phospho-T202/Y204 kit). In kind it is cell-based, human. Conditions: Homo sapiens; AGS cells (KRAS G12D), 3 hrs with compound, inhibition of p-ERK level. A digest of the protocol: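 KRAS G12D AGS gastric cancer cells were plated overnight, then exposed 3 h to 3.16-fold compound dilutions at 0.1% DMSO final. Lysates were probed for ERK phospho-T202/Y204 by HTRF after 4 h. Inhibition relative to DMSO and blank was fitted by four-parameter regression for IC50.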
For orientation: In TR-FRET formats the signal depends on donor and acceptor labels being close together.

The test system of series [1] is AsPC-1 human pancreatic cancer cell with KRAS G12D mutation. The series is described as follows: Cell proliferation inhibition experiment, 3D CellTiter-Glo, AsPC-1. In kind it is cell-based. Conditions: Homo sapiens, ASPC1, 120 h, AsPC-1 cells, 3D spheroid, 5 days. A digest of the protocol:
(§1)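 3D spheroids (800 AsPC-1 or 400 AGS cells/well) established overnight, then treated with 3.16-fold compound dilutions (0.1% DMSO) for 5 days. Viability read by CellTiter-Glo 3D luminescence; inhibition normalised to DMSO and medium blank, IC50 by four-parameter fit.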
A general note: Cellular ATP, detected with luciferase, serves as a proxy for viable cell number.

The subject of series [2] is AGS human gastric cancer cell line with KRAS G12D mutation. Put plainly: Cell proliferation inhibition experiment, 3D CellTiter-Glo, AGS. In kind it is cell-based. Conditions: Homo sapiens, 120 h, AGS cells, 3D spheroid, 5 days. Put shortly: as §1
The next series can be described thus: in vivo. Conditions: male, CD-1, mouse, po, 30 mg/kg.

Protocol for in vivo: Test objective: Male CD-1 mice were used as test animals. The drug concentrations in plasma of mice at various times were determined by LC/MS/MS after intravenous and oral administration of the test compounds. The pharmacokinetic behavior of the test compounds in mice was studied and their pharmacokinetic characteristics were evaluated.
Test methods: test animals: 60 healthy adult male CD-1 mice, aged 6-8 weeks and weighing about 30 g, and divided into 10 groups, including IV groups (intravenous injection group, five groups), with 6 mice in each group; and PO groups (oral administration group, five groups), with 6 mice in each group.
Preparation of drug solution: IV group: Taking 10 mL sample solution as an example, 2 mg sample was weighed, 0.5 mL DMSO and 1 mL Solutol HS 15 were sequentially added, and then 8.5 mL 6% HP-β-CD was added, and stirred ultrasonically to obtain a clear solution of 0.2 mg/mL.
PO group 1: Taking 10 mL sample solution as an example, 10 mg sample was weighed, 0.5 mL DMSO and 1 mL Solutol HS 15 were sequentially added, and then 8.5 mL 6% HP-β-CD was added, and stirred ultrasonically to obtain a 1 mg/mL solution.
PO group 2: A 3 mg/mL solution of the sample was prepared according to the preparation method for PO group 1.
Administration: After overnight fasting, the mice in the IV group were administered with a volume of 5 mL/kg at a dose of 1 mg/kg.
PO group 1: The mice were administered with a volume of 10 mL/kg at a dose of 10 mg/kg.
PO group 2: The mice were administered with a volume of 10 mL/kg at a dose of 30 mg/kg.
Experimental operations: Male CD-1 mice in the intravenous injection group and oral administration group were given the test compound, respectively. After that, 50 μl of blood was periodically collected into a K2EDTA anticoagulation tube at 0.0833, 0.25, 0.5, 1, 2, 4, 6, 8 and 24 hrs, and the plasma was separated by centrifugation at 4° C. and 8000 rpm for 15 min. The plasma was stored in dry ice at −80° C. 4 hrs after administration, the animals were allowed to free access to food. The contents of the test compounds in plasma of mice after intravenous and oral administration were determined by LC/MS/MS. The linear range of the method was 1-3000 ng/ml. The plasma samples were treated with acetonitrile to precipitate the protein and then analyzed.

For `C[C@@H]1Oc2nc(-c3cc(N)cc(Cl)c3C(F)(F)F)c(F)c3nc(OC[C@@]45CCCN4CC(=C(F)F)C5)nc(c23)N2C[C@H]3CC[C@H](N3)[C@@H]12` [Z1084, 3-chloro-5-((5S,5aS,6S,9R)-12-(((S)-2-(difluoromethylene)tetrahydro-1H-pyrrolizin-7a(5H)-yl)methoxy)-1-fluoro-5-methyl-5a,6,7,8,9,10-hexahydro-5H-4-oxa-3,10a,11,13,14-pentaaza-6,9-methanonaphtho[1,8-ab]hepten-2-yl)-4-(trifluoromethyl) aniline], the IC50 (as a rule, the point on the concentration scale where inhibition reaches its midpoint) was 0.12 nM with AGS p-ERK, 1.23 nM in series [1] and 0.38 nM in series [2]. In addition, the AUC(0-t) – broadly, the area under the concentration-time curve up to a stated or last time point – in “in vivo” was found to be 2440 ng·h/mL. In addition, the bioavailability – broadly, the share of a dose that reaches the circulation, judged against a reference dose that is usually intravenous – in the series “in vivo” is 20.7%.
In the same order, the values of `[2H]C([2H])([2H])[C@@H]1Oc2nc(-c3cc(N)cc(Cl)c3C(F)(F)F)c(F)c3nc(OC[C@@]45CCCN4CC(=C(F)F)C5)nc(c23)N2C[C@H]3CC[C@H](N3)[C@@H]12` [Z1054, 3-chloro-5-((5S,5aS,6S,9R)-12-(((S)-2-(difluoromethylene)tetrahydro-1H-pyrrolizin-7a(5H)-yl)methoxy)-1-fluoro-5-(methyl-d3)-5a,6,7,8,9,10-hexahydro-5H-4-oxa-3,10a,11,13,14-pentaaza-6,9-methanonaphtho[1,8-ab]hepten-2-yl)-4-(trifluoromethyl) aniline] are 0.43 nM, 1.29 nM, 0.37 nM, 3250 ng·h/mL and 29.4%.

For the origin of these results see US20260109714A1, “PYRIMIDINE-FUSED RING COMPOUND, AND PREPARATION METHOD THEREFOR AND USE THEREOF” (GENFLEET THERAPEUTICS (SHANGHAI) INC., priority 2022, published 2026).
